This note sets out measurements from patent US20220411388A1, “SUBSTITUTED IMIDAZOLE CARBOXAMIDES AND THEIR USE IN THE TREATMENT OF MEDICAL DISORDERS” (Bial - R&D Investments, S.A., priority 2019, published 2022).

Converted amounts (≈) assume the structure as drawn. Where two headings read alike, the source gives them in different places. Where only a bound is given, the exact number is not on record here.

Series [1] is described as follows: Compound solubility in water. In kind it is physicochemical.
For another series, the target named is T1, acid ceramidase (hACR) (Homo sapiens, UniProt Q13510).
T1 construct: expressed in transfected cells
T1 sequence (Q13510 22-395): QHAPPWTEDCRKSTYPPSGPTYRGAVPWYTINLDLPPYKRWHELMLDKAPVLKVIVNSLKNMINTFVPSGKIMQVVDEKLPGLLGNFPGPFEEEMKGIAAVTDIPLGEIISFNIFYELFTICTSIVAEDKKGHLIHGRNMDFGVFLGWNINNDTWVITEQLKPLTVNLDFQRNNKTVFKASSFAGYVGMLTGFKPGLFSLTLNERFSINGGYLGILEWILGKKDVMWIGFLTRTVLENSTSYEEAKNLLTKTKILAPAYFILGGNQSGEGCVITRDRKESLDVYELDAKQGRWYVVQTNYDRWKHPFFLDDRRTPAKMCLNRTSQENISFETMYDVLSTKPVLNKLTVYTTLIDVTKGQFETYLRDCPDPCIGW
Kind of series: Acid ceramidase inhibition, biochemical fluorescent assay with cell lysates overexpressing acid ceramidase (substrate Rbm14-12). The note with it: cell lysate, 1 hr preincubation at RT, pH 4.5, Rbm14-12 6.3 μM. On the procedure: The ability of exemplary compounds to inhibit acid ceramidase was measured.
Cell lysates overexpressing acid ceramidase were used as the enzyme source for compound potency determination in a biochemical fluorescent assay. Briefly, compounds were preincubated with 10 μg protein of cell lysates in a dose-response manner for 1 hr at RT in the assay buffer containing 25 mM NaAC and 100 mM NaCl, pH 4.5. […] The samples were incubated with the stopping buffer at RT for 1 hr to allow the fluorescent product to be formed. […] Data were collected and used to determine the IC50 values of compounds by curve fitting to the four-parameter inhibition equation.

For `COc1nc(C(C)C)cn1C(=O)NCCC(C)C` [Example 76], the solubility in series [1] came to 20 µg/mL (≈ 78.9 µM). Also, on acid ceramidase (hACR) (read-out: IC50 hACR), the IC50 fell in the range of 200 to 1000 nM.
Consider `CCc1cn(C(=O)NCCC(C)C)c(OC)n1` [Example 77, 4-Ethyl-N-iso-pentyl-2-methoxy-1H-imidazole-1-carboxamide], for which the concentration in solution in series [1] (solubility) came to 23 µg/mL (≈ 96.1 µM). At acid ceramidase (hACR) (read-out: IC50 hACR), the IC50 is 200 to 1000 nM.
As for `COc1nccn1C(=O)NCCC(C)C` [Example 78, N-iso-pentyl-2-methoxy-1H-imidazole-1-carboxamide], the concentration in solution in series [1] (solubility) was 28 µg/mL (≈ 133 µM). In addition, at acid ceramidase (hACR) (read-out: IC50 hACR), the IC50 is 200 to 1000 nM.
The corresponding values for `CC(C)CC(C)NC(=O)n1cnc(C(C)(C)C)c1` (centres unmarked) [Example 79, 4-(tert-Butyl)-N-(4-methylpentan-2-yl)-1H-imidazole-1-carboxamide] are 11 µg/mL (≈ 43.8 µM) and below 200 nM.
Take `CSc1nc(C(C)(C)C)cn1C(=O)NCCC(C)C` [Example 80, 4-(tert-Butyl)-N-iso-pentyl-2-(methylthio)-1H-imidazole-1-carboxamide]: the concentration in solution in series [1] (solubility) was 0.2 µg/mL (≈ 0.706 µM). Besides, on acid ceramidase (hACR) (read-out: IC50 hACR), the IC50 is below 200 nM.
For `COc1nc(C(C)(C)C#N)cn1C(=O)NCCC(C)C` [Example 81, 4-(2-Cyanopropan-2-yl)-N-iso-pentyl-2-methoxy-1H-imidazole-1-carboxamide], the concentration in solution in series [1] (solubility) came to 23 µg/mL (≈ 82.6 µM). Besides, at acid ceramidase (hACR) (read-out: IC50 hACR), the IC50 is above 1000 nM.
On to `COc1nc(C2(C)CCC(=O)N2C)cn1C(=O)NCCC(C)C` (centres unmarked) [Example 82, 4-(1,2-Dimethyl-5-oxopyrrolidin-2-yl)-N-iso-pentyl-2-methoxy-1H-imidazole-1-carboxamide], for which the concentration in solution in series [1] (solubility) was 31 µg/mL (≈ 96.2 µM). At acid ceramidase (hACR) (read-out: IC50 hACR), the IC50 is above 1000 nM.
`COc1nc(-c2cccnn2)cn1C(=O)NCCC(C)C` [Example 83, N-iso-Pentyl-2-methoxy-4-(pyridazin-3-yl)-1H-imidazole-1-carboxamide] had a solubility in series [1] of 33 µg/mL (≈ 114 µM). Moreover, the IC50 on acid ceramidase (hACR) (read-out: IC50 hACR) lay within 200 to 1000 nM.
As to `COc1nc(C2CCCO2)cn1C(=O)NCCC(C)C` (centres unmarked) [Example 84, N-iso-pentyl-2-methoxy-4-(tetrahydrofuran-2-yl)-1H-imidazole-1-carboxamide], the solubility in series [1] was 25 µg/mL (≈ 88.9 µM). Besides, the IC50 on acid ceramidase (hACR) (read-out: IC50 hACR) is above 1000 nM.
`COc1nc(C2CCOC2)cn1C(=O)NCCC(C)C` (centres unmarked) [Example 85, N-iso-Pentyl-2-methoxy-4-(tetrahydrofuran-3-yl)-1H-imidazole-1-carboxamide] gave a solubility in series [1] of 28 µg/mL (≈ 99.5 µM). The IC50 on acid ceramidase (hACR) (read-out: IC50 hACR) is 200 to 1000 nM.
`COc1nc(C(C)(C)C)cn1C(=O)NCC(C)C` [Example 86, 4-(tert-Butyl)-N-iso-butyl-2-methoxy-1H-imidazole-1-carboxamide] registered a solubility in series [1] of 15 µg/mL (≈ 59.2 µM). Moreover, the half-inhibitory concentration (IC50) on acid ceramidase (hACR) (read-out: IC50 hACR) was in the range of 200 to 1000 nM.
The corresponding values for `CC(C)CNC(=O)n1cnc(C(C)(C)C)c1` [Example 87, 4-(tert-Butyl)-N-iso-butyl-1H-imidazole-1-carboxamide] are 17 µg/mL (≈ 76.1 µM) and 200 to 1000 nM.
Consider `COc1nc(C(C)(C)C)cn1C(=O)NCCC1(C(F)(F)F)CC1` [Example 90, 4-(tert-Butyl)-2-methoxy-N-(2-(1-(trifluoromethyl)cyclopropyl)ethyl)-1H-imidazole-1-carboxamide], for which the solubility in series [1] was determined as 17 µg/mL (≈ 51 µM). For the same compound, the IC50 at acid ceramidase (hACR) (read-out: IC50 hACR) was in the range of 200 to 1000 nM.
As for `COc1nc(C(C)(C)C)cn1C(=O)NCCCC(F)(F)F` [Example 91, 4-(tert-Butyl)-2-methoxy-N-(4,4,4-trifluorobutyl)-1H-imidazole-1-carboxamide], in series [1], the solubility worked out at 22 µg/mL (≈ 71.6 µM). Also, on acid ceramidase (hACR) (read-out: IC50 hACR), the IC50 lay in the range of 200 to 1000 nM.
The corresponding values for `CCOc1nc(C(C)(C)C)cn1C(=O)NCCC1CC1` [Example 92, 4-(tert-Butyl)-N-(2-cyclopropylethyl)-2-ethoxy-1H-imidazole-1-carboxamide] are 12 µg/mL (≈ 43 µM) and 200 to 1000 nM.
`COc1nc(C(C)(C)C)cn1C(=O)NC1CCCCC1` [Example 93, 4-(tert-Butyl)-N-cyclohexyl-2-methoxy-1H-imidazole-1-carboxamide] returned a solubility in series [1] of 8 µg/mL (≈ 28.6 µM). Also, the IC50 at acid ceramidase (hACR) (read-out: IC50 hACR) was in the range of 200 to 1000 nM.
In series [1], `COc1ccc(-c2cn(C(=O)NCCC3(C(F)(F)F)CC3)c(OC)n2)cn1` [Example 94, 2-Methoxy-4-(6-methoxypyridin-3-yl)-N-(2-(1-(trifluoromethyl)cyclopropyl)ethyl)-1H-imidazole-1-carboxamide] showed a solubility of 6 µg/mL (≈ 15.6 µM). Also, on acid ceramidase (hACR) (read-out: IC50 hACR), the IC50 is 200 to 1000 nM.
As for `COc1nc(C(C)(C)C)cn1C(=O)NCCCC1CC1` [Example 95, 4-(tert-Butyl)-N-(3-cyclopropylpropyl)-2-methoxy-1H-imidazole-1-carboxamide], the solubility in series [1] amounted to 12 µg/mL (≈ 43 µM). Also, on acid ceramidase (hACR) (read-out: IC50 hACR), the IC50 is below 200 nM.
In series [1], `COc1nc(C(C)(C)C)cn1C(=O)NCCCC1(C(F)(F)F)CC1` [Example 96, 4-(tert-Butyl)-2-methoxy-N-(3-(1-(trifluoromethyl)cyclopropyl)propyl)-1H-imidazole-1-carboxamide] gave a solubility of 12 µg/mL (≈ 34.5 µM). Besides, on acid ceramidase (hACR) (read-out: IC50 hACR), the IC50 is below 200 nM.
Regarding `COc1nc(C(C)(C)C)cn1C(=O)NCCCCC1CC1` [Example 97, 4-(tert-Butyl)-N-(4-cyclopropylbutyl)-2-methoxy-1H-imidazole-1-carboxamide], the solubility in series [1] turned out to be 3 µg/mL (≈ 10.2 µM). On acid ceramidase (hACR) (read-out: IC50 hACR), the IC50 was below 200 nM.
`COc1nc(C(C)(C)C)cn1C(=O)NCC#CC(C)C` [Example 98, 4-(tert-Butyl)-2-methoxy-N-(4-methylpent-2-yn-1-yl)-1H-imidazole-1-carboxamide] registered a solubility in series [1] of 5 µg/mL (≈ 18 µM). Further, the IC50 at acid ceramidase (hACR) (read-out: IC50 hACR) was below 200 nM.
`COc1nc(C(C)(C)C)cn1C(=O)NC1CCCC(F)(F)C1` (centres unmarked) [Example 99, 4-(tert-Butyl)-N-(3,3-difluorocyclohexyl)-2-methoxy-1H-imidazole-1-carboxamide] registered a solubility in series [1] of 14 µg/mL (≈ 44.4 µM). Further, the IC50 on acid ceramidase (hACR) (read-out: IC50 hACR) was above 1000 nM.
Regarding `CCC(C)(C)c1cn(C(=O)NCCC(C)C)c(OC)n1` [Example 100, N-iso-Pentyl-2-methoxy-4-(tert-pentyl)-1H-imidazole-1-carboxamide], the concentration in solution in series [1] (solubility) was 14 µg/mL (≈ 49.8 µM). For the same compound, on acid ceramidase (hACR) (IC50 hACR), the IC50 was in the range of 200 to 1000 nM.
In series [1], `COc1nc(C(C)(C)C)cn1C(=O)NCCCc1ccccc1` [Example 101, 4-(tert-Butyl)-2-methoxy-N-(3-phenylpropyl)-1H-imidazole-1-carboxamide] had a solubility of 10 µg/mL (≈ 31.7 µM). For the same compound, on acid ceramidase (hACR) (read-out: IC50 hACR), the IC50 was below 200 nM.
As for `COc1nc(C(C)(C)C)cn1C(=O)NCCCC(C)C` [Example 102, 4-(tert-Butyl)-2-methoxy-N-(4-methylpentyl)-1H-imidazole-1-carboxamide], the solubility in series [1] came out at 10 µg/mL (≈ 35.5 µM). Besides, at acid ceramidase (hACR) (read-out: IC50 hACR), the IC50 was below 200 nM.
Regarding `COc1nc(-c2coc(C(C)(C)C)n2)cn1C(=O)NCCC1CC1` [Example 103, 4-(2-(tert-Butyl)oxazol-4-yl)-N-(2-cyclopropylethyl)-2-methoxy-1H-imidazole-1-carboxamide], in series [1], the concentration in solution (solubility) came to 6 µg/mL (≈ 18.1 µM). Also, on acid ceramidase (hACR) (read-out: IC50 hACR), the IC50 is above 1000 nM.
`COc1nc(C2(C)CCOCC2)cn1C(=O)NCCC1CC1` [Example 104, N-(2-Cyclopropylethyl)-2-methoxy-4-(4-methyltetrahydro-2H-pyran-4-yl)-1H-imidazole-1-carboxamide]: in series [1], the solubility was 28 µg/mL (≈ 91.1 µM). Further, at acid ceramidase (hACR) (read-out: IC50 hACR), the IC50 fell in the range of 200 to 1000 nM.
The corresponding values for `COc1nc(C2CCCC2)cn1C(=O)NCCCOc1ccccc1` [Example 105, 4-Cyclopentyl-2-methoxy-N-(3-phenoxypropyl)-1H-imidazole-1-carboxamide] are 14 µg/mL (≈ 40.8 µM) and below 200 nM.
In series [1], `COc1nc(C2CCCC2)cn1C(=O)NC1CCCCC1` [Example 106, N-Cyclohexyl-4-cyclopentyl-2-methoxy-1H-imidazole-1-carboxamide] had a solubility of 6 µg/mL (≈ 20.6 µM). Moreover, the IC50 on acid ceramidase (hACR) (read-out: IC50 hACR) was above 1000 nM.
Compound `CC(C)CNC(=O)n1cc(C(C)(C)C)nc1OC(C)C` [Example 107, 4-(tert-Butyl)-N-iso-butyl-2-iso-propoxy-1H-imidazole-1-carboxamide] came in with a solubility in series [1] of 7 µg/mL (≈ 24.9 µM). In addition, the IC50 at acid ceramidase (hACR) (read-out: IC50 hACR) was in the range of 200 to 1000 nM.
On to `COc1nc(C2CCOC2)cn1C(=O)NC1CCCCC1` (centres unmarked) [Example 108, N-Cyclohexyl-2-methoxy-4-(tetrahydrofuran-3-yl)-1H-imidazole-1-carboxamide], for which, in series [1], the concentration in solution (solubility) was 32 µg/mL (≈ 109 µM). Besides, the IC50 on acid ceramidase (hACR) (read-out: IC50 hACR) was above 1000 nM.
The corresponding values for `COc1nc(C2CCCCC2)cn1C(=O)NCCC(C)C` [Example 109, 4-Cyclohexyl-N-iso-pentyl-2-methoxy-1H-imidazole-1-carboxamide] are 13 µg/mL (≈ 44.3 µM) and 200 to 1000 nM.
Consider `COc1nc(C2CCOCC2)cn1C(=O)NCCC(C)C` [Example 110, N-iso-Pentyl-2-methoxy-4-(tetrahydro-2H-pyran-4-yl)-1H-imidazole-1-carboxamide], for which the solubility in series [1] was determined as 29 µg/mL (≈ 98.2 µM). On acid ceramidase (hACR) (read-out: IC50 hACR), the IC50 fell in the range of 200 to 1000 nM.
Compound `COc1nc(C2CCC(F)(F)CC2)cn1C(=O)NCCC(C)C` [Example 111, 4-(4,4-Difluorocyclohexyl)-N-iso-pentyl-2-methoxy-1H-imidazole-1-carboxamide] yielded a solubility in series [1] of 15 µg/mL (≈ 45.5 µM). Also, the IC50 at acid ceramidase (hACR) (read-out: IC50 hACR) is 200 to 1000 nM.

What is called solubility is how much of the substance goes into solution per volume. The term IC50 denotes the concentration that inhibits the measured activity by half.
